What was measured:
COX-1 = COX-1 (Ovis aries, UniProt P05979); assay: COX-1 inhibition assay (as disclosed in Chem. Med. Chem. 2012, 7, 629-641); format: biochemical
Protocol: The biological assays were carried out as disclosed in Chem. Med. Chem. 2012, 7, 629 - 641.

[1] = tested on: ovarian surface epithelial cells allografted in female nude mice; settings: after treatment with SC-560, recent reports; cited from earlier work

Chain of COX-1 (P05979 25-600): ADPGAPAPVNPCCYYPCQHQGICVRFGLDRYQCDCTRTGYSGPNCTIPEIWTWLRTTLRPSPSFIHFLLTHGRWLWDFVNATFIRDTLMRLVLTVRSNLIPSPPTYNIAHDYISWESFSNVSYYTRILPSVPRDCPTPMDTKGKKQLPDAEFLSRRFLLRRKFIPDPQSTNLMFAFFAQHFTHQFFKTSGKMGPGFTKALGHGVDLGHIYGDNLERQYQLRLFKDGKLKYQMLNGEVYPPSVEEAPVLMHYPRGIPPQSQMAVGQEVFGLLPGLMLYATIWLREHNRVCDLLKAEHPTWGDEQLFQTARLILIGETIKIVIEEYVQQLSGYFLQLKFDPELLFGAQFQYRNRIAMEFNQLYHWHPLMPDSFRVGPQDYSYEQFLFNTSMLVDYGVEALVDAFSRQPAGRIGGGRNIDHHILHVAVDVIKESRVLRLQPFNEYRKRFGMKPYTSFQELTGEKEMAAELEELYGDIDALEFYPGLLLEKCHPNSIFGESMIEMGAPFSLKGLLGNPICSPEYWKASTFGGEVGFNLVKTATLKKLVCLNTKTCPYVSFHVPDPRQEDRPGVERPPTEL

Structure (SMILES)	IC50 (COX-1)	tumor growth [1]
COc1ccc(-c2noc(C)c2-c2ccc(OC)cc2)cc1 [(III), 3,4-bis(4-methoxyphenyl)-5-methylisoxazole]	76 nM	–
COc1ccc(-n2nc(C(F)(F)F)cc2-c2ccc(Cl)cc2)cc1 [SC-560]	–	significantly reduction of tumor growth

— patent EP2948187B1, “HETEROCYCLES AND THEIR RADIOLABELED ANALOGS USEFUL AS COX-1 SELECTIVE INHIBITORS” (Universita' Degli Studi di Bari, priority 2013, dated 2014)
